melting point: 164 °C
SMILES: COCCNc1c(S(=O)(=O)C(F)(F)F)c(C#N)nn1-c1c(Cl)cc(C(F)(F)F)cc1Cl

Reference: patent publication US7576107B2 (dated 2009)
